Earlier results in US20210236427A1, “Development of Lipid Matrix Granules with Incorporation of Polysaccharides for Effective Delivery of an Antimicrobial Essential Oil” (University of Manitoba, priority 2018, published 2021).

System: Brachyspira hyodysenteriae
Conditions: in vitro; Vande Maele et al., 2016

minimum inhibitory concentration (MIC): less than 1.5 mM
SMILES: CCCCCCCCCCCC(=O)O [lauric acid]
